{"source": "patent US8318504B2", "about": "“MRP2 efflux pathway prognostic method” (priority 2009, dated 2012)", "key": {"[1]": {"biological_target": "T1, OATP1B3 (Homo sapiens, UniProt Q9NPD5)", "T1 construct": "expressed in transfected cells; host or cells: CHO cells (stably transfected; Treiber et al. 2007)", "T1 sequence (Q9NPD5 1-702)": "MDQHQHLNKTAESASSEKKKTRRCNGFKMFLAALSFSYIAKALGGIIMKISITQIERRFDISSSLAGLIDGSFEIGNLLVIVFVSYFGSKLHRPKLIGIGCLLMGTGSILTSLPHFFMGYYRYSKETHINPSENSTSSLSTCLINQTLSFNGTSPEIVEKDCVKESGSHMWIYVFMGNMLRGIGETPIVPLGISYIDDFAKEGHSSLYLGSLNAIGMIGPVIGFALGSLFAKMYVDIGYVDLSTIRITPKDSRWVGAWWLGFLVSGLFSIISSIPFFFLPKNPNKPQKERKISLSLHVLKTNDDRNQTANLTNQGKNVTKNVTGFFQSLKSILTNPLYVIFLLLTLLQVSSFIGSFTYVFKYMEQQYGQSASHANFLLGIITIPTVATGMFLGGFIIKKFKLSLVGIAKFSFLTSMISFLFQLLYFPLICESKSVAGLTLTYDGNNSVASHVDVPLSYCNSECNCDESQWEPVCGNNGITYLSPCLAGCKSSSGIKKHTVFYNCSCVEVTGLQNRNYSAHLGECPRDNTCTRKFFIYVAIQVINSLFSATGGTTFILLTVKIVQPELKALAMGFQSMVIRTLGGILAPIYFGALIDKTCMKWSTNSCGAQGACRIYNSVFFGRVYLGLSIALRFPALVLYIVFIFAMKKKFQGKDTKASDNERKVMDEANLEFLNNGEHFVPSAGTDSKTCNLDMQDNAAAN", "assay": "Uptake of CLF into CHO cells expressing OATP1B3", "assay_type": "cell-based", "set-up": "Vmax of OATP1B3 mediated CLF transport: unit not given here", "method": "cDNA for human NTCP [Hagenbuch et al., J Clin Invest 1994 March; 93(3): 1326-1331] was cut with EcoRV and HindI and the coding region ligated into pcDNA5/FRT (Invitrogen, Life-Technologies, Carlsbad, Calif.). CHO FlpIn cells (Invitrogen, Life-Technologies) were transfected with the resulting construct using Lipofectamine® 2000 (Invitrogen, Life-Technologies). Stably transfected cells were selected with 550 μg Hygromycin-B in HAM-F12 medium (Gibco, Invitrogen, Life-Technologies). Transfected cells were cloned with the limiting dilution method. […] To further characterize the cloned cells, immunofluorescence localization of NTCP using a polyclonal antibody against NTCP [Kullak-Ublick G et al., Gastroenterology 1997 October; 113(4):1295-1305] was performed as described by Huber R D et al. [Am J Physiol Cell Physiol 2007 February; 292(2):[…]-[…]]. CHO cells expressing OATP1B1, OATP1B3 and OATP2B1 were described previously [Treiber et al., DMD 35:1400-1407, 2007]. For all transport experiments, cells grown on 3 cm culture dishes were cultured for 24 hours in media supplemented with 5 mmol/L sodium-butyrate to increase expression levels of transfected transporters [Palermo D P et al., J Biotechnol 1991 June; 19(1):35-47]. • Transport experiments with uptake of radioactively labeled substrates: These experiments were performed as described by Huber R D et al. […] Uptake was performed in the same buffers as for the radioactive substrates above. For visualization of CLF uptake, cells were immediately inspected with a Leica-DM-IRBE-inverted-microcope (Leica-Microsystems, Wetzlar, Germany) equipped with a Hamamatsu-ORKA-ER-camera (Hamamatsu-Photonoics, Japan). To determine uptake of CLF, cells were solubilized by the addition of 2 ml 1% (w/v) Triton-X-100. After complete solubilization, 1.5 ml was used to measure fluorescence in a Perkin-Elmer LS-5 luminescence-spectrometer set at λexe 486 nm (slit 10 nm) and λem 520 nm (slit 5 nm). Protein was determined with the bicinchoninic acid method using a kit from Interchim (Montfuçon, France). […]"}, "[2]": {"biological_target": "T1, OATP1B3", "assay": "Inhibition by CLF of TC transport in CHO cells expressing OATP1B3", "assay_type": "cell-based", "conditions": "0, 5 or 50 μmol/L CLF, 10 μmol/L TC", "method": "FIGS. 3A-3D relate to inhibition of transport activity of hepatocellular uptake transporters by CLF. CHO cells expressing NTCP, OATP1B1, OATP1B3 and OATP2B1 were incubated with 0, 5 or 50 μmol/L CLF and with the substrates, 2.5 μmol/L TC, 1 μmol/L estrone-3-sulfate, 10 μmol/L TC and 1 μmol/L estrone-3-sulfate, respectively. Data represent means±SD of triplicate determinations.\nFor all transport experiments, cells grown on 3 cm culture dishes were cultured for 24 hours in media supplemented with 5 mmol/L sodium-butyrate to increase expression levels of transfected transporters [Palermo D P et al., J Biotechnol 1991 June; 19(1):35-47]. • Transport experiments with uptake of radioactively labeled substrates: These experiments were performed as described by Huber R D et al. [Am J Physiol Cell Physiol 2007 February; 292(2):C795-C806]. • Transport experiments with uptake of CLF: Uptake was performed in the same buffers as for the radioactive substrates above. […] After complete solubilization, 1.5 ml was used to measure fluorescence in a Perkin-Elmer LS-5 luminescence-spectrometer set at λexe 486 nm (slit 10 nm) and λem 520 nm (slit 5 nm). Protein was determined with the bicinchoninic acid method using a kit from Interchim (Montfuçon, France). […]"}}}
{"smiles": "CC(CCC(=O)NC(CCCCNC(=S)Nc1ccc(-c2c3ccc(=O)cc-3oc3cc(O)ccc23)c(C(=O)O)c1)C(=O)O)C1CCC2C3C(O)CC4CC(O)CCC4(C)C3CC(O)C12C", "note": "(stereo not shown) [CLF, cholyl lysyl fluorescein]", "values": [{"measurement": "uptake of CLF into OATP1B3 expressing cells", "setting": "[1]; 1 μmol/L CLF, 1 or 5 minutes", "value": "clear uptake"}, {"measurement": "Vmax of OATP1B3 mediated CLF transport", "setting": "[1]; 45 seconds, mean of three independent determinations", "value": "213±42"}, {"measurement": "Km at 45 seconds", "setting": "[1]; human, CHO cells expressing OATP1B3, 45 seconds, mean of three independent determinations, read-out: Km of OATP1B3 mediated CLF transport", "value": "4.6 ± 2.7", "unit": "µM"}, {"measurement": "inhibition of transport of TC mediated by OATP1B3 by CLF", "setting": "[2]", "value": "inhibited by CLF in a dose-dependent manner"}]}
